For five compounds, mutagenic call results are on record in PubChem BioAssay AID1259407 (Chemical Carcinogenesis Research Information System (CCRIS), 2018).

Active and inactive are the calls of the source. No rule for the calls is given here.

The data set concerns CCRIS mutagenicity, Ames/micronucleus/aberration tests. In words: CCRIS mutagenicity studies.
Setting [1] is: Test System: AMES SALMONELLA TYPHIMURIUM, Strain/Indicator: TA98, Metabolic Activation: NONE, Method: PREINCUBATION
Where [2] appears, read: Test System: AMES SALMONELLA TYPHIMURIUM, Strain/Indicator: TA98, Metabolic Activation: NONE, Method: STANDARD PLATE.
The mark [3] stands for this setting: Test System: AMES SALMONELLA TYPHIMURIUM, Strain/Indicator: TA100, Metabolic Activation: NONE, Method: STANDARD PLATE.

Turning to `NCCNCCN`, the mutagenic call reads like this: (Test System: AMES SALMONELLA TYPHIMURIUM, Strain/Indicator: TA98, Metabolic Activation: HAMSTER, LIVER, S-9, AROCLOR 1254 (10%), Method: PREINCUBATION) “inactive; negative”; under setting [1], “inactive; negative”; under setting [2], “inactive; negative”; (Test System: AMES SALMONELLA TYPHIMURIUM, Strain/Indicator: TA98, Metabolic Activation: RAT LIVER S-9, PHENOBARBITAL AND BETA-NAPHTHOFLAVONE, Method: PREINCUBATION) “inactive; negative”; (Test System: AMES SALMONELLA TYPHIMURIUM, Strain/Indicator: TA98, Metabolic Activation: RAT, LIVER, S-9, AROCLOR 1254 (10%), Method: PREINCUBATION) “inactive; negative”; (Test System: AMES SALMONELLA TYPHIMURIUM, Strain/Indicator: TA98, Metabolic Activation: RAT, LIVER, S-9, AROCLOR 1254, Method: STANDARD PLATE) “inactive; negative”. Further, the mutagenic call is “inactive; negative” (Test System: AMES SALMONELLA TYPHIMURIUM, Strain/Indicator: TA98, Metabolic Activation: RAT, LIVER, S-9, PCB, Method: PREINCUBATION); “inactive; negative” (Test System: AMES SALMONELLA TYPHIMURIUM, Strain/Indicator: TA100, Metabolic Activation: HAMSTER, LIVER, S-9, AROCLOR 1254 (10%), Method: PREINCUBATION); “inactive; negative” (Test System: AMES SALMONELLA TYPHIMURIUM, Strain/Indicator: TA100, Metabolic Activation: NONE, Method: PREINCUBATION); “inactive; negative” under setting [3]; “inactive; negative” (Test System: AMES SALMONELLA TYPHIMURIUM, Strain/Indicator: TA100, Metabolic Activation: RAT LIVER S-9, PHENOBARBITAL AND BETA-NAPHTHOFLAVONE, Method: PREINCUBATION); “inactive; negative” (Test System: AMES SALMONELLA TYPHIMURIUM, Strain/Indicator: TA100, Metabolic Activation: RAT, LIVER, S-9, AROCLOR 1254 (10%), Method: PREINCUBATION). In addition, the mutagenic call runs as follows: (Test System: AMES SALMONELLA TYPHIMURIUM, Strain/Indicator: TA100, Metabolic Activation: RAT, LIVER, S-9, AROCLOR 1254, Method: STANDARD PLATE) “inactive; negative”; (Test System: AMES SALMONELLA TYPHIMURIUM, Strain/Indicator: TA100, Metabolic Activation: RAT, LIVER, S-9, PCB, Method: PREINCUBATION) “inactive; negative”; (Test System: AMES SALMONELLA TYPHIMURIUM, Strain/Indicator: TA1535, Metabolic Activation: HAMSTER, LIVER, S-9, AROCLOR 1254 (10%), Method: PREINCUBATION) “inactive; negative”; (Test System: AMES SALMONELLA TYPHIMURIUM, Strain/Indicator: TA1535, Metabolic Activation: NONE, Method: PREINCUBATION) “inactive; negative”; (Test System: AMES SALMONELLA TYPHIMURIUM, Strain/Indicator: TA1535, Metabolic Activation: NONE, Method: STANDARD PLATE) “inactive; negative”; (Test System: AMES SALMONELLA TYPHIMURIUM, Strain/Indicator: TA1535, Metabolic Activation: RAT LIVER S-9, PHENOBARBITAL AND BETA-NAPHTHOFLAVONE, Method: PREINCUBATION) “inactive; negative”. Further, the mutagenic call is, setting by setting: (Test System: AMES SALMONELLA TYPHIMURIUM, Strain/Indicator: TA1535, Metabolic Activation: RAT, LIVER, S-9, AROCLOR 1254 (10%), Method: PREINCUBATION) “inactive; negative”; (Test System: AMES SALMONELLA TYPHIMURIUM, Strain/Indicator: TA1535, Metabolic Activation: RAT, LIVER, S-9, AROCLOR 1254, Method: STANDARD PLATE) “inactive; negative”; (Test System: AMES SALMONELLA TYPHIMURIUM, Strain/Indicator: TA1537, Metabolic Activation: HAMSTER, LIVER, S-9, AROCLOR 1254 (10%), Method: PREINCUBATION) “inactive; negative”; (Test System: AMES SALMONELLA TYPHIMURIUM, Strain/Indicator: TA1537, Metabolic Activation: NONE, Method: PREINCUBATION) “inactive; negative”; (Test System: AMES SALMONELLA TYPHIMURIUM, Strain/Indicator: TA1537, Metabolic Activation: NONE, Method: STANDARD PLATE) “inactive; negative”; (Test System: AMES SALMONELLA TYPHIMURIUM, Strain/Indicator: TA1537, Metabolic Activation: RAT LIVER S-9, PHENOBARBITAL AND BETA-NAPHTHOFLAVONE, Method: PREINCUBATION) “inactive; negative”. Further, the mutagenic call reads like this: (Test System: AMES SALMONELLA TYPHIMURIUM, Strain/Indicator: TA1537, Metabolic Activation: RAT, LIVER, S-9, AROCLOR 1254 (10%), Method: PREINCUBATION) “inactive; negative”; (Test System: AMES SALMONELLA TYPHIMURIUM, Strain/Indicator: TA1537, Metabolic Activation: RAT, LIVER, S-9, AROCLOR 1254, Method: STANDARD PLATE) “inactive; negative”; (Test System: AMES SALMONELLA TYPHIMURIUM, Strain/Indicator: TA1538, Metabolic Activation: NONE, Method: STANDARD PLATE) “inactive; negative”; (Test System: AMES SALMONELLA TYPHIMURIUM, Strain/Indicator: TA1538, Metabolic Activation: RAT, LIVER, S-9, AROCLOR 1254, Method: STANDARD PLATE) “inactive; negative”; (Test System: CHINESE HAMSTER OVARY, Strain/Indicator: CHO (HGPRT)/6-THIOGUANINE, Metabolic Activation: NONE) “inactive; negative”; (Test System: CHINESE HAMSTER OVARY, Strain/Indicator: CHO (HGPRT)/6-THIOGUANINE, Metabolic Activation: RAT, LIVER, S-9, AROCLOR 1254) “inactive; negative”. The mutagenic call (Test System: E.COLI, Strain/Indicator: WP2UVRA/PKM101, Metabolic Activation: NONE, Method: PREINCUBATION) is “inactive; negative”; the mutagenic call (Test System: E.COLI, Strain/Indicator: WP2UVRA/PKM101, Metabolic Activation: RAT LIVER S-9, PHENOBARBITAL AND BETA-NAPHTHOFLAVONE, Method: PREINCUBATION) was “inactive; negative”; the mutagenic call (Test System: UDS RAT HEPATOCYTES, Strain/Indicator: THY INCORP, Metabolic Activation: NONE, Method: SCINTILLATION SPECTROMETRY) is “inactive; negative”.
Regarding `N#Cc1ccc2nc(N)[nH]c2c1`, the mutagenic call runs as follows: (Test System: AMES SALMONELLA TYPHIMURIUM, Strain/Indicator: TA98, Metabolic Activation: RAT, LIVER, S-9, AROCLOR 1254, Method: PREINCUBATION) “active; positive”; (Test System: AMES SALMONELLA TYPHIMURIUM, Strain/Indicator: TA100, Metabolic Activation: RAT, LIVER, S-9, AROCLOR 1254, Method: PREINCUBATION) “active; positive”.
Regarding `O=S(=O)(Cc1ccccc1)N1[C@@H]2c3ccccc3-c3ccccc3[C@@H]21` (some centres undefined), under setting [3], the mutagenic call is “active; positive”.
Consider `O=C(Nc1ccccc1F)c1csc([N+](=O)[O-])c1`, for which the mutagenic call is “active; positive” under setting [2] and “active; positive” under setting [3].
In the case of `O=[N+]([O-])c1cc2ccccc2c2ccccc12`, the mutagenic call runs as follows: (Test System: AMES SALMONELLA TYPHIMURIUM, Strain/Indicator: TA98(1,8-DNP6), Metabolic Activation: NONE, Method: STANDARD PLATE) “active; positive”; (Test System: AMES SALMONELLA TYPHIMURIUM, Strain/Indicator: TA98(NR), Metabolic Activation: NONE, Method: STANDARD PLATE) “active; positive”; under setting [1], “active; positive”; under setting [2], “active; positive”; (Test System: AMES SALMONELLA TYPHIMURIUM, Strain/Indicator: TA98, Metabolic Activation: RAT, LIVER, S-9, PCB (10%), Method: PREINCUBATION) “inactive; negative”; under setting [3], “active; positive”. Also, the mutagenic call (Test System: AMES SALMONELLA TYPHIMURIUM, Strain/Indicator: TA7001, Metabolic Activation: NONE, Method: PREINCUBATION) was “active; positive”; the mutagenic call (Test System: AMES SALMONELLA TYPHIMURIUM, Strain/Indicator: TA7002, Metabolic Activation: NONE, Method: PREINCUBATION) is “active; positive”; the mutagenic call (Test System: AMES SALMONELLA TYPHIMURIUM, Strain/Indicator: TA7003, Metabolic Activation: NONE, Method: PREINCUBATION) was “inactive; negative”; the mutagenic call (Test System: AMES SALMONELLA TYPHIMURIUM, Strain/Indicator: TA7004, Metabolic Activation: NONE, Method: PREINCUBATION) was “active; positive”; the mutagenic call (Test System: AMES SALMONELLA TYPHIMURIUM, Strain/Indicator: TA7005, Metabolic Activation: NONE, Method: PREINCUBATION) is “active; positive”; the mutagenic call (Test System: AMES SALMONELLA TYPHIMURIUM, Strain/Indicator: TA7006, Metabolic Activation: NONE, Method: PREINCUBATION) is “active; positive”. Besides, the mutagenic call is, setting by setting: (Test System: AMES SALMONELLA TYPHIMURIUM, Strain/Indicator: YG1021, Metabolic Activation: NONE, Method: STANDARD PLATE) “active; positive”; (Test System: AMES SALMONELLA TYPHIMURIUM, Strain/Indicator: YG1024, Metabolic Activation: NONE, Method: STANDARD PLATE) “active; positive”; (Test System: AMES SALMONELLA TYPHIMURIUM, Strain/Indicator: YG1026, Metabolic Activation: NONE, Method: STANDARD PLATE) “active; positive”; (Test System: AMES SALMONELLA TYPHIMURIUM, Strain/Indicator: YG1029, Metabolic Activation: NONE, Method: STANDARD PLATE) “active; positive”.
